Assay results taken from US10842892B2, “Methods and apparatus for synthesizing imaging agents, and intermediates thereof” (Lantheus Medical Imaging, Inc., priority 2010, dated 2020).
Where “and” joins values, the source holds several entries; their conditions need not be identical. Identical values can stand only once.

Columns and labels:
healthy adults = experiment: radiation dosimetry after single injection at rest (OLINDA/EXM, MIRD); type: in vivo, human
Method: This was a non-randomized, open-label, single-dose study. A total of 13 healthy adult subjects were enrolled and administered a single dose of imaging agent 1 at a single study center in the United States. Subjects were screened within 14 days prior to enrollment to confirm subject eligibility, and began baseline assessments at the study center the day before study drug administration. Subjects remained at the study center until completion of the Study Day 2 safety assessments (24±8 hours post-dose). A telephone call was made to study subjects 48±8 hours post-dose for adverse event (AE) monitoring. All subjects returned to the study center approximately one week (5-7 days) post-dose for a follow-up safety visit, and were contacted by telephone approximately 14-17 days post-dose for final serious AE monitoring.
On day 1, each subject received a 1-3 mL intravenous bolus injection of imaging agent 1 in a sterile solution of ≤5% ethanol containing ≤50 mg/mL sodium ascorbate in water, calculated to deliver approximately the target dose of imaging agent 1 at the time of injection. The dose was administered in less than 10 seconds, followed immediately by a 3-5 mL saline flush.
Dosimetry analyses. Estimates of radiation dosimetry for the standard organs of the adult male and female models and for the, salivary glands as well as the effective dose equivalent (EDE) (International Commission on Radiological Protection (ICRP), Recommendations of the International Commission on Radiological Protection, Publication 26. Ann ICRP. 1977; 1(3)) and the effective dose (ED) (International Commission on Radiological Protection (ICRP), 1990 Recommendations of the International Commission on Radiological Protection, 60. Ann ICRP. 1990; 21(1-3)) were determined using the OLINDA/EXM software (Stabin, M G, Sparks, R B, et al, OLINDA/EXM: the second-generation personal computer software for internal dose assessment in nuclear medicine.” J Nucl Med 2005 46(6):1023-7) Assessment of radiation dosimetry was based on the MIRD method, with data derived from imaging studies, using methods consistent with MIRD Pamphlet no. 16 (Siegel J A, Thomas S R, Stubbs J B, et al. MIRD pamphlet no. 16: Techniques for quantitative radiopharmaceutical biodistribution data acquisition and analysis for use in human radiation dose estimates. J Nucl Med. 1999 February; 40(2):37S-61S).
The attenuation corrected transverse image data slice planes were combined into a single three-dimensional image matrix for each subject and each time point using custom software. These images were then divided into 6 image sets (“anterior”, “posterior”, “salivary”, “thyroid”, “source”, and “full”) of combined coronal plane image data for each subject at each time point, grouping organs with similar anterior to posterior depths. This was done to optimize the ROI creation, and minimize background contribution to the organs contained in each combined coronal plane image. The “anterior” images contained stomach wall, heart wall, and urinary bladder. The “posterior” images contained kidneys, lumbar spine, and spleen (when visible). The “salivary” images contained the salivary glands (parotid and submandibular). The “thyroid” images contained the thyroid. The “full” images combined all of the coronal image planes that contained subject image data and was used for quantification of the brain and liver. The “source” images contained the calibration source.
Absolute radioactivity was determined by normalizing ROI sums by a calibration factor derived from the calibration source. Region counts were also adjusted for activity containing underlying and overlying tissue that was not part of the organ or tissue being quantified by utilization of background regions of interest. Total body region counts were also corrected for off body background counts. Appropriate normalization of region sizes for organ and adjacent regions were made. […]

[1] = tested on: coronary artery disease (CAD); experiment: Phase 2 diagnostic performance for coronary artery disease, PET versus SPECT; type: in vivo, human
Source text: 143 patients (Pts) from 21 centers, presenting with a broad spectrum of CAD pre-test likelihoods, underwent rest-stress Tc-99m labeled SPECT MPI and imaging agent 1 PET MPI. […] Their mean age was 64.5 (range: 36-85) years and 68 were males. % narrowing in each coronary artery was quantified blindly. 52/84 Pts had significant CAD (≥50% luminal diameter narrowing) and 32/84 had insignificant CAD/normal coronary arteries. In each patient, 17 myocardial segments were visually scored on rest and stress images by 3 independent, blinded readers and majority rule interpretation was determined in each patient for both PET and SPECT studies. Diagnostic performance of PET was compared to that of SPECT using ROC analysis.

[2] = N = 12, Void Interval = 3.5 hours

In the case of `CC(C)(C)n1ncc(OCc2ccc(COCC[18F])cc2)c(Cl)c1=O` [imaging agent 1, 2-t-butyl-4-chloro-5-[4-(2-(^18F)fluoroethoxymethyl)-benzyloxy]-2H-pyridazin-3-1], the “mean ED” value (healthy adults; N = 12) is reported as 0.072 rem/mCi, the “mean absorbed dose, heart wall” value (healthy adults; N = 12) is reported as 0.18 rem/mCi and the “mean absorbed dose, kidneys (critical organ)” value (healthy adults; N = 12) is reported as 0.24 rem/mCi. The “ED, Mean” value (healthy adults; [2]) was 0.019 mSv/MBq and 1.9E−02 mSv/MBq, the “EDE, Mean” value (healthy adults; [2]) was 2.2E−02 mSv/MBq and the “absorbed dose estimate, Mean, Brain” value (healthy adults; [2]) was 2.5E−02 mSv/MBq. For the same compound, the “absorbed dose estimate, Mean, Breasts” value (healthy adults; [2]) was 8.8E−03 mSv/MBq, the “absorbed dose estimate, Mean, Gallbladder Wall” value (healthy adults; [2]) was 1.7E−02 mSv/MBq and the “absorbed dose estimate, Mean, Heart Wall” value (healthy adults; [2]) was 0.048 mSv/MBq and 4.8E−02 mSv/MBq. For the same compound, the “absorbed dose estimate, Mean, Kidneys” value (healthy adults; [2]) was 0.066 mSv/MBq and 6.6E−02 mSv/MBq, the “absorbed dose estimate, Mean, LLI Wall” value (healthy adults; [2]) was 1.2E−02 mSv/MBq and the “absorbed dose estimate, Mean, Liver” value (healthy adults; [2]) was 3.9E−02 mSv/MBq. The “absorbed dose estimate, Mean, Lungs” value (healthy adults; [2]) was 1.1E−02 mSv/MBq, the “absorbed dose estimate, Mean, Muscle” value (healthy adults; [2]) was 1.0E−02 mSv/MBq and the “absorbed dose estimate, Mean, Osteogenic Cells” value (healthy adults; [2]) was 1.9E−02 mSv/MBq. For the same compound, the “absorbed dose estimate, Mean, Ovaries” value (healthy adults; [2]) was 1.2E−02 mSv/MBq, the “absorbed dose estimate, Mean, Pancreas” value (healthy adults; [2]) was 1.6E−02 mSv/MBq and the “absorbed dose estimate, Mean, Red Marrow” value (healthy adults; [2]) was 1.6E−02 mSv/MBq. For the same compound, the “absorbed dose estimate, Mean, Salivary” value (healthy adults; [2]) was 3.5E−02 mSv/MBq, the “absorbed dose estimate, Mean, Skin” value (healthy adults; [2]) was 7.9E−03 mSv/MBq and the “absorbed dose estimate, Mean, Small Intestine” value (healthy adults; [2]) was 1.3E−02 mSv/MBq. The “absorbed dose estimate, Mean, Spleen” value (healthy adults; [2]) was 1.6E−02 mSv/MBq, the “absorbed dose estimate, Mean, Stomach Wall” value (healthy adults; [2]) was 4.0E−02 mSv/MBq and the “absorbed dose estimate, Mean, Testes” value (healthy adults; [2]) was 9.2E−03 mSv/MBq. For the same compound, the “absorbed dose estimate, Mean, Thymus” value (healthy adults; [2]) was 1.1E−02 mSv/MBq, the “absorbed dose estimate, Mean, Thyroid” value (healthy adults; [2]) was 3.2E−02 mSv/MBq and the “absorbed dose estimate, Mean, Total Body” value (healthy adults; [2]) was 1.2E−02 mSv/MBq. The “absorbed dose estimate, Mean, ULI Wall” value (healthy adults; [2]) was 1.3E−02 mSv/MBq, the “absorbed dose estimate, Mean, Urinary Bladder Wall” value (healthy adults; [2]) was 2.3E−02 mSv/MBq and the “absorbed dose estimate, Mean, Uterus” value (healthy adults; [2]) was 1.2E−02 mSv/MBq. For the same compound, the “maximum injected dose without exceeding 1 rem ED” value (healthy adults; in vivo) was 14 mCi, the “maximum injected dose without exceeding 10 mSv (1 rem) ED” value (healthy adults; in vivo) was 521 MBq and the “maximum injected dose without exceeding 50 mSv to the critical organ” value (healthy adults; kidneys) was 770 MBq. The “Diagnostic certainty of interpretation (% of cases with definitely abnormal/normal interpretation)” value ([1]; in vivo) was 92.0%, the “area under the ROC curve for overall diagnosis of CAD” value ([1]; in vivo) was 0.79±0.05 and the “% of images rated as either excellent or good” value ([1]; rest images) was 96.8%. The “% of images rated as either excellent or good” value ([1]; stress images) was 99.2%.
